This assay relates to L1210 leukemia ip in BDF1 mice, survival T/C. The assay can be described thus: NCI In Vivo Anticancer Drug Screen. Data for tumor model L1210 Leukemia (intraperitoneal) in B6D2F1 (BDF1) mice. Conditions: endpoint: mean survival time, higher = longer survival. The method, boiled down:
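Tumor was transplanted into mice, which were then dosed with test compound or vehicle alone. Survival was recorded for each group, and the treated figure was expressed relative to the control figure.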

Setting [1] is: dose: 100.0 mg/kg/injection, schedule: Q01DX009 (ip), vehicle: saline.
[2] abbreviates: dose: 100.0 mg/kg/injection, schedule: Q01DX009 (ip), vehicle: Klucel (hydroxypropylcellulose) (HPC).
Where [3] appears, read: dose: 200.0 mg/kg/injection, schedule: Q01DX009 (ip), vehicle: Klucel (hydroxypropylcellulose) (HPC).
[4] abbreviates: dose: 400.0 mg/kg/injection, schedule: Q01DX009 (ip), vehicle: Klucel (hydroxypropylcellulose) (HPC).
The mark [5] stands for this setting: dose: 75.0 mg/kg/injection, schedule: Q01DX001 (ip), vehicle: saline.
The mark [6] stands for this setting: dose: 150.0 mg/kg/injection, schedule: Q01DX001 (ip), vehicle: saline.
The mark [7] stands for this setting: dose: 25.0 mg/kg/injection, schedule: Q01DX009 (ip), vehicle: Klucel (hydroxypropylcellulose) (HPC).
The mark [8] stands for this setting: dose: 100.0 mg/kg/injection, schedule: Q01DX001 (ip), vehicle: Klucel (hydroxypropylcellulose) (HPC).
Setting [9] is: dose: 200.0 mg/kg/injection, schedule: Q01DX001 (ip), vehicle: Klucel (hydroxypropylcellulose) (HPC).
Setting [10] is: dose: 100.0 mg/kg/injection, schedule: Q04DX002 (ip), vehicle: saline with Tween-80.
[11] abbreviates: dose: 400.0 mg/kg/injection, schedule: Q01DX001 (ip), vehicle: Klucel (hydroxypropylcellulose) (HPC).
The mark [12] stands for this setting: dose: 100.0 mg/kg/injection, schedule: Q01DX001 (ip), vehicle: carboxymethylcellulose (CMC).
[13] abbreviates: dose: 200.0 mg/kg/injection, schedule: Q01DX001 (ip), vehicle: carboxymethylcellulose (CMC).
[14] abbreviates: dose: 100.0 mg/kg/injection, schedule: Q01DX001 (ip), vehicle: saline.
Where [15] appears, read: dose: 200.0 mg/kg/injection, schedule: Q01DX001 (ip), vehicle: saline.
Setting [16] is: dose: 100.0 mg/kg/injection, schedule: Q04DX003 (ip), vehicle: saline with Tween-80.
Setting [17] is: dose: 200.0 mg/kg/injection, schedule: Q04DX003 (ip), vehicle: saline with Tween-80.
[18] abbreviates: dose: 400.0 mg/kg/injection, schedule: Q04DX003 (ip), vehicle: saline with Tween-80.
The mark [19] stands for this setting: dose: 400.0 mg/kg/injection, schedule: Q01DX001 (ip), vehicle: carboxymethylcellulose (CMC).

Where “and” joins values, the source holds several entries; their conditions need not be identical. Equal entries are not always repeated. Toxic doses and inconclusive results are not listed. Peptide text beside a SMILES is read from it. * marks the point of attachment. Cbz = O=C(OCc1ccccc1)*

Consider `CCOC(O)C(Cl)(Cl)Cl` (centres undefined), for which the T/C reads like this: under setting [1], 103 % of control; (dose: 100.0 mg/kg/injection, schedule: Q04DX003 (ip), vehicle: saline) 100 % of control; (dose: 200.0 mg/kg/injection, schedule: Q01DX009 (ip), vehicle: saline) 102 % of control; (dose: 200.0 mg/kg/injection, schedule: Q04DX003 (ip), vehicle: saline) 103 % of control; (dose: 400.0 mg/kg/injection, schedule: Q01DX009 (ip), vehicle: saline) 92 % of control; (dose: 400.0 mg/kg/injection, schedule: Q04DX003 (ip), vehicle: saline) 90 % of control.
With `CC(=NC(CC(C)C)C(=O)O)NC(CC(C)C)C(=O)O` (centres undefined), the T/C under setting [2] was 101 % of control, the T/C under setting [3] is 110 % of control and the T/C under setting [4] was 103 % of control.
With `C[N+]1(C2CCC3CCC2C3=O)CCCC1` (centres undefined), the T/C is 97 % of control under setting [5] and 97 % of control under setting [6].
As to `NC(N)=NC(N)=Nc1cccc(Cl)c1`, the T/C runs as follows: under setting [7], 108 % of control and 88 % of control; (dose: 50.0 mg/kg/injection, schedule: Q01DX009 (ip), vehicle: Klucel (hydroxypropylcellulose) (HPC)) 94 % of control and 97 % of control; under setting [8], 93 % of control; (dose: 100.0 mg/kg/injection, schedule: Q04DX003 (ip), vehicle: Klucel (hydroxypropylcellulose) (HPC)) 105 % of control; under setting [9], 103 % of control.
For `O=C1C=CC(c2ccccc2)(c2ccccc2)C=C1`, the T/C was 93 % of control (dose: 25.0 mg/kg/injection, schedule: Q04DX002 (ip), vehicle: saline with Tween-80); 101 % of control (dose: 50.0 mg/kg/injection, schedule: Q04DX002 (ip), vehicle: saline with Tween-80); 96 % of control under setting [10].
Turning to `CCCCCC(NC(=O)CCl)C(=O)O` (centres undefined), the T/C reads like this: under setting [2], 91 % of control; under setting [3], 96 % of control; under setting [4], 92 % of control.
In the case of `C=C(C)COc1ccc(Nc2ccccc2)cc1`, the T/C under setting [8] was 92 % of control, the T/C under setting [9] was 95 % of control and the T/C under setting [11] is 89 % of control.
`O=[N+]([O-])c1ccc(S(=O)Cc2ccccc2)c2c1no[n+]2[O-]` (centres undefined): for the setting “dose: 25.0 mg/kg/injection, schedule: Q04DX003 (ip), vehicle: saline with Tween-80”, the T/C was 100 % of control.
On to `O=C(O)/C=C/C(=O)Nc1ccc([N+](=O)[O-])c(C(F)(F)F)c1`, for which the T/C reads like this: under setting [2], 107 % of control; under setting [3], 112 % of control.
On to `Cc1ccnc(NS(=O)(=O)c2ccc(N=Nc3cc(N=Nc4ccccc4)c(N)nc3N)cc2)n1`, for which the T/C was 105 % of control under setting [12] and 102 % of control under setting [13].
For `CON(C)CCO`, the T/C was 107 % of control (dose: 25.0 mg/kg/injection, schedule: Q01DX001 (ip), vehicle: Klucel (hydroxypropylcellulose) (HPC)); 107 % of control (dose: 50.0 mg/kg/injection, schedule: Q01DX001 (ip), vehicle: Klucel (hydroxypropylcellulose) (HPC)); 105 % of control and 107 % of control under setting [8]; 102 % of control under setting [9].
Regarding `C=CC(=O)NCCN(C)C`, the T/C under setting [5] was 104 % of control; the T/C under setting [6] is 93 % of control; the T/C (dose: 300.0 mg/kg/injection, schedule: Q01DX001 (ip), vehicle: saline) was 104 % of control.
For `CC(C)COC(=O)c1ccc(NC(=S)Nc2ccccc2)cc1`, the T/C is 93 % of control under setting [2] and 93 % of control under setting [3].
Turning to `CCOC(=O)c1nc2c(C)nc(N(C)C)nc2n(C)c1=O`, the T/C reads like this: under setting [8], 100 % of control; under setting [9], 97 % of control; under setting [11], 94 % of control.
For the compound `CCOC(=O)CNC(=O)CNC(=O)CNC(=O)OCc1ccccc1` (Cbz-Gly-Gly-Gly-OEt), the T/C is 93 % of control under setting [14]; 88 % of control under setting [15]; 94 % of control (dose: 400.0 mg/kg/injection, schedule: Q01DX001 (ip), vehicle: saline).
As to `CC(=O)Nc1cccc(C(C)=O)c1[N+](=O)[O-]`, the T/C is 100 % of control under setting [16], 94 % of control under setting [17] and 100 % of control under setting [18].
Take `CNC(=O)NNC(=O)CNC(=O)Nc1cccc([N+](=O)[O-])c1`: the T/C by setting is: (dose: 25.0 mg/kg/injection, schedule: Q01DX009 (ip), vehicle: saline with Tween-80) 91 % of control; (dose: 50.0 mg/kg/injection, schedule: Q01DX009 (ip), vehicle: saline with Tween-80) 94 % of control.
As for `CN(C)C=NC1CCC(C(C)(C)C)CC1` (centres undefined), the T/C is, setting by setting: (dose: 12.5 mg/kg/injection, schedule: Q01DX009 (ip), vehicle: Klucel (hydroxypropylcellulose) (HPC)) 96 % of control; (dose: 12.5 mg/kg/injection, schedule: Q04DX003 (ip), vehicle: Klucel (hydroxypropylcellulose) (HPC)) 103 % of control; under setting [7], 102 % of control; (dose: 25.0 mg/kg/injection, schedule: Q04DX003 (ip), vehicle: Klucel (hydroxypropylcellulose) (HPC)) 95 % of control; (dose: 50.0 mg/kg/injection, schedule: Q04DX003 (ip), vehicle: Klucel (hydroxypropylcellulose) (HPC)) 93 % of control.
Regarding `Nc1nc(N)c(N=Nc2ccc(S(=O)(=O)Nc3ccccn3)cc2)c(N)n1`, the T/C by setting is: under setting [14], 101 % of control; under setting [15], 95 % of control.
For the compound `Oc1ccc(I)c2cccnc12`, the T/C (dose: 22.5 mg/kg/injection, schedule: Q01DX009 (ip), vehicle: saline) is 165 % of control; the T/C (dose: 45.0 mg/kg/injection, schedule: Q01DX009 (ip), vehicle: saline) is 240 % of control; the T/C (dose: 90.0 mg/kg/injection, schedule: Q01DX009 (ip), vehicle: saline) is 297 % of control; the T/C under setting [12] was 93 % of control; the T/C under setting [1] is 169 % of control; the T/C (dose: 180.0 mg/kg/injection, schedule: Q01DX009 (ip), vehicle: saline) is 206 % of control. In addition, the T/C runs as follows: under setting [13], 90 % of control; under setting [19], 95 % of control.
Consider `CC(=O)c1ccc(O)c2ccccc12`, for which the T/C is 92 % of control under setting [10]; 95 % of control (dose: 200.0 mg/kg/injection, schedule: Q04DX002 (ip), vehicle: saline with Tween-80); 100 % of control (dose: 400.0 mg/kg/injection, schedule: Q04DX002 (ip), vehicle: saline with Tween-80).
As for `COc1ccc(C(C)c2ccccc2)cc1` (centres undefined), the T/C was 98 % of control under setting [16], 95 % of control under setting [17] and 93 % of control under setting [18].
In the case of `CCCCC(=O)N/N=C\c1ccc(N(CC)CC)cc1`, the T/C by setting is: under setting [12], 95 % of control; under setting [13], 87 % of control; under setting [19], 87 % of control.
